Among the data in patent publication US20050074901A1, “Methods and assays for detecting and quantifying the human p53 inducible gene protein” (priority 2002, published 2005) are PIG3 level and PIG3 induction values, retold here.

In experiment [1] the test system is PIG3. Kind of experiment: Adriamycin upregulation of PIG3 over time and dose (PIG3 ELISA, FIG. 4A). The experiment is classed as cell-based, human. The source says: The invention features a PIG3 ELISA that is a “sandwich” enzyme immunoassay employing two mouse monoclonal antibodies and methods for using the assay. A monoclonal antibody, specific for the human PIG3 protein, is immobilized onto the surface of microtiter wells provided. A kit for the immunoassay, comprising two monoclonal antibodies X1155P and X1156M, is available from Exalpha Biologicals, Inc. in Boston, Mass. As the Frontier Assay Kit. The sample to be assayed and the biotinylated detector monoclonal antibody are pipetted into the wells and allowed to incubate for two hours, during which time any PIG3 present binds to the capture and detecting antibodies. […]
The horseradish peroxidase catalyzes the conversion of the chromogenic substrate tetra-methylbenzidine (TMB) from a colorless solution to a blue solution (or yellow after the addition of stop reagent), the intensity of which is proportional to the amount of PIG3 protein in the sample. The colored reaction product is quantified using a spectrophotometer.
Quantitation is achieved by the construction of a standard curve using known concentrations of PIG3 (provided lyophilized). By comparing the absorbance obtained from a sample containing an unknown amount of PIG3 with that obtained from the standards, the concentration of PIG3 in the sample is determined. […]

In experiment [2] the test system is PIG3. The note with it: cited from earlier work.

Read-outs that look alike come from different tables or passages of the source.

Consider `COc1cccc2c1C(=O)c1c(O)c3c(c(O)c1C2=O)C[C@@](O)(C(=O)CO)C[C@@H]3O[C@H]1C[C@H](N)[C@H](O)[C@H](C)O1` [Adriamycin, adriamycin], for which, in the experiment with PIG3 [1], the PIG3 level result was “upregulation of PIG3”. Also, the results for the PIG3 induction entry in the experiment on PIG3 [2] (cell lines with wild-type p53 genes) and in the experiment with PIG3 [2] (cell with mutant p53) were “strongly induced” and “not in the cell with mutant p53”, respectively.
